Measured values reported in patent publication US11591367B2, “Melanocortin-1-receptor agonists” (DSM IP ASSETS B.V., priority 2016, dated 2023).
Residues, ends and D or L forms follow the SMILES beside them.

These compounds were tested against T1, human MC1 receptor (Homo sapiens, UniProt Q01726) (assay: Human MC1 receptor cAMP HTRF functional assay (MC1R stimulation)). Details: not given.
T1 construct: expressed in transfected cells; host or cells: Chinese Hamster Ovary (CHO) cells
T1 sequence (Q01726 whole entry): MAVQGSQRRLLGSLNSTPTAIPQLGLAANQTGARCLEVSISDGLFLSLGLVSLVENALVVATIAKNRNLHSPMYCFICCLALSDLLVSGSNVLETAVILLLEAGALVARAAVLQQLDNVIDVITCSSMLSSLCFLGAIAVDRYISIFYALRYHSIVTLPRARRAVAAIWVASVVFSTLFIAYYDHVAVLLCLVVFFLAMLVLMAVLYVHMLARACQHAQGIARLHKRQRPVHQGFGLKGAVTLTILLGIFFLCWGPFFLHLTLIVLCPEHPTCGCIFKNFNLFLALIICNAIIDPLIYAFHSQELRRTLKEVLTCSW
Type: cell-based
Experimental: Human MC1 Receptor Using cAMP HTRF Functional Assay:
Twenty seven (27) compounds were tested for agonist activity at the human MC1 receptor using cAMP HTRF (homogeneous time-resolved fluorescence) assays at eight (8) concentrations and in duplicate.
On the day of experimentation, compounds were tested at several concentrations in duplicate wells (n=2) to obtain a dose-response curve and an estimated EC50 value. Values obtained for the reference compound were compared to historical values obtained from the same receptor and used to validate the experimental session. For replicate determinations, the maximum variability tolerated in the test was of +/−20% around the average of the replicates.
Assay: After cultivation Chinese Hamster Ovary (CHO) cells were detached and incubated at a specific cell density in assay buffer. At this stage the CHO cells express the human MC1R at their surface. Agonist compounds were added at determined concentration and incubated for 30 min. Cells were lysed in detection buffer in order to extract cAMP. The amount of cAMP within the cells correlates with GPCR-activity, meaning that in this assay it correlates with MC1R-activity. cAMP was detected in a competitive HTRF assay for binding to an anti-cAMP-antibody.
Compound CCCN(CCC)C(=O)[C@H](Cc1c[nH]c2ccccc12)NC(=O)[C@H](CCCNC(=N)N)NC(=O)[C@@H](Cc1ccccc1)NC(=O)[C@@H](Cc1c[nH]cn1)NC(=O)CNC(=O)c1ccccc1 [Compound R1, Bz-Gly-D-His-D-Phe-Arg-Trp-N(Propyl)2 *2TFA, reference compound] (HELM PEPTIDE1{[O=C(c1ccccc1)[*:2]].G.[dH].[dF].R.W.[CCCN(CCC)[*:1]]}$$$$V2.0) has an EC50 of 36 nM. Compound CCCN(CCC)C(=O)[C@H](Cc1c[nH]c2ccccc12)NC(=O)[C@H](CCCNC(=N)N)NC(=O)[C@H](Cc1ccccc1)NC(=O)[C@H](Cc1c[nH]cn1)NC(=O)CNC(=O)c1ccccc1 [Compound R2, Bz-Gly-His-Phe-Arg-Trp-N(Propyl)2 *2TFA, reference compound] (HELM PEPTIDE1{[O=C(c1ccccc1)[*:2]].G.H.F.R.W.[CCCN(CCC)[*:1]]}$$$$V2.0) has an EC50 of 51.4 nM. CCCN(CCC)C(=O)[C@H](Cc1c[nH]c2ccccc12)NC(=O)[C@@H](CCCNC(=N)N)NC(=O)[C@@H](Cc1ccccc1)NC(=O)[C@H](Cc1c[nH]cn1)NC(=O)CNC(=O)c1ccccc1 [Compound R3, Bz-Gly-His-D-Phe-D-Arg-Trp-N(Propyl)2 *2TFA, reference compound] (HELM PEPTIDE1{[O=C(c1ccccc1)[*:2]].G.H.[dF].[dR].W.[CCCN(CCC)[*:1]]}$$$$V2.0) showed an EC50 of 70.1 nM.

Same assay, conditions: agonist activity; CHO cells expressing human MC1R; 30 min incubation; 8 concentrations in duplicate; read-out: EC50 [nM], MC1R stimulation assay
N=C(N)NCCC[C@H](NC(=O)[C@@H](Cc1ccccc1)NC(=O)[C@H](Cc1c[nH]cn1)NC(=O)CNC(=O)c1ccccc1)C(=O)N[C@@H](Cc1c[nH]c2ccccc12)C(N)=O [(I-a), Bz-Gly-His-D-Phe-Arg-Trp-NH2 *2TFA] (HELM PEPTIDE1{[O=C(c1ccccc1)[*:2]].G.H.[dF].R.W.[am]}$$$$V2.0) showed an EC50 of 0.041 nM. N=C(N)NCCC[C@H](NC(=O)[C@@H](Cc1ccccc1)NC(=O)[C@H](Cc1c[nH]cn1)NC(=O)CNC(=O)c1ccccc1)C(=O)N[C@H](Cc1ccc2ccccc2c1)C(N)=O [(I-b), Bz-Gly-His-D-Phe-Arg-D-2-NaphAla-NH2 *2TFA] (HELM PEPTIDE1{[O=C(c1ccccc1)[*:2]].G.H.[dF].R.[O=C([C@@H](Cc1ccc2ccccc2c1)N[*:1])[*:2]].[am]}$$$$V2.0) showed an EC50 of 0.25 nM. In the case of N=C(N)NCCC[C@H](NC(=O)[C@@H](Cc1ccccc1)NC(=O)[C@H](Cc1c[nH]cn1)NC(=O)CNC(=O)c1ccccc1)C(=O)N[C@@H](Cc1ccc2ccccc2c1)C(N)=O [(I-c), Bz-Gly-His-D-Phe-Arg-L-2-NaphAla-NH2 *2TFA] (HELM PEPTIDE1{[O=C(c1ccccc1)[*:2]].G.H.[dF].R.[O=C([C@H](Cc1ccc2ccccc2c1)N[*:1])[*:2]].[am]}$$$$V2.0), the EC50 is reported as 0.11 nM. Compound CCCN(CCC)C(=O)[C@@H](Cc1c[nH]c2ccccc12)NC(=O)[C@H](CCCNC(=N)N)NC(=O)[C@@H](Cc1ccccc1)NC(=O)[C@H](Cc1c[nH]cn1)NC(=O)CNC(=O)c1ccccc1 [(I-d), Bz-Gly-His-D-Phe-Arg-D-Trp-N(Propyl)2 *2TFA] (HELM PEPTIDE1{[O=C(c1ccccc1)[*:2]].G.H.[dF].R.[dW].[CCCN(CCC)[*:1]]}$$$$V2.0) has an EC50 of 0.42 nM. Work on CCCN(CCC)C(=O)[C@H](Cc1c[nH]c2ccccc12)NC(=O)[C@H](CCCNC(=N)N)NC(=O)[C@@H](Cc1ccccc1)NC(=O)[C@H](Cc1c[nH]cn1)NC(=O)CNC(=O)c1ccccc1 [(I-e), Bz-Gly-His-D-Phe-Arg-Trp-N(Propyl)2 *2TFA] (HELM PEPTIDE1{[O=C(c1ccccc1)[*:2]].G.H.[dF].R.W.[CCCN(CCC)[*:1]]}$$$$V2.0) yielded an EC50 of 0.88 nM. For CCCCCCCCNC(=O)[C@H](Cc1c[nH]c2ccccc12)NC(=O)[C@H](CCCNC(=N)N)NC(=O)[C@@H](Cc1ccccc1)NC(=O)[C@H](Cc1c[nH]cn1)NC(=O)CNC(=O)c1ccccc1 [(I-f), Bz-Gly-His-D-Phe-Arg-Trp-NHOctyl *2TFA] (HELM PEPTIDE1{[O=C(c1ccccc1)[*:2]].G.H.[dF].R.W.[CCCCCCCCN[*:1]]}$$$$V2.0), the EC50 was 1.06 nM. With N=C(N)NCCC[C@H](NC(=O)[C@@H](Cc1ccccc1)NC(=O)[C@H](Cc1c[nH]cn1)NC(=O)CNC(=O)c1ccccc1)C(=O)N[C@H](Cc1ccccc1)C(N)=O [(I-g), Bz-Gly-His-D-Phe-Arg-D-Phe-NH2 *2TFA] (HELM PEPTIDE1{[O=C(c1ccccc1)[*:2]].G.H.[dF].R.[dF].[am]}$$$$V2.0) the EC50 was 1.79 nM. For NCC[C@H](NC(=O)[C@@H](Cc1ccccc1)NC(=O)[C@H](Cc1c[nH]cn1)NC(=O)CNC(=O)c1ccccc1)C(=O)N[C@@H](Cc1c[nH]c2ccccc12)C(N)=O [(I-h), Bz-Gly-His-D-Phe-Dab-Trp-NH2 *2TFA] (HELM PEPTIDE1{[O=C(c1ccccc1)[*:2]].G.H.[dF].[Dab].W.[am]}$$$$V2.0), the EC50 was 7.51 nM. N=C(N)NCCC[C@H](NC(=O)[C@@H](Cc1ccccc1)NC(=O)[C@H](Cc1cnc[nH]1)NC(=O)CNC(=O)c1ccccc1)C(=O)N(CCc1c[nH]c2ccccc12)CC(N)=O [(I-i), Bz-Gly-His-D-Phe-Arg-(N-IndEt)Gly-NH2 *2TFA] (HELM PEPTIDE1{[O=C(c1ccccc1)[*:2]].G.H.[dF].R.[O=C(CN(CCc1c[nH]c2ccccc12)[*:1])[*:2]].[am]}$$$$V2.0) gave an EC50 of 4.4 nM. N=C(N)NCCC[C@H](NC(=O)[C@@H](Cc1ccccc1)NC(=O)[C@H](Cc1c[nH]cn1)NC(=O)CNC(=O)c1ccccc1)C(=O)NCCc1c[nH]c2ccccc12 [Compound R4, Bz-Gly-His-D-Phe-Arg-Tryptamide *2TFA, reference compound] (HELM PEPTIDE1{[O=C(c1ccccc1)[*:2]].G.H.[dF].R.[c1ccc2c(CCN[*:1])c[nH]c2c1]}$$$$V2.0) showed an EC50 of 42.9 nM.

What follows are compounds tested on Skin samples (from abdominal plastic surgery) (assay: Ex-vivo skin pigmentation trial (melanin amount, Fontana-Masson stain)). Details: 4 μl/200 μM of active applied topically daily; melanin amount at day 6; % increase versus untreated.
Type: cell-based
Experimental: Skin samples (from abdominal plastic surgery) have been cut in pieces of approx. 8×3 mm (Øx thickness) and were cultured up to day 6 in an air-liquid interface in a perforated ring of stainless steel in contact with a culture medium (modified Williams'E medium), the culture medium has been renewed every three days. Six skin specimens have been used for each treatment. Each test sample (4 μl/200 μM of active) has been applied topically on top of each piece after gentle cleaning of the surface with a cotton pad followed by covering with a 6 ø mm delivery membrane, which procedure has been repeated daily. After 6 days of incubation, the melanin amount was assessed on twelve skin sections for each treatment by staining using a modified Fontana-Masson stain. The amount of melanin present in each slide has been evaluated by estimating the intensity and the distribution of grey tone: 8-bit grey-scale images for each treatment have been captured at the microscope. Then the colour space of the images have been transformed from RGB into L*a*b* images and each pixel of the picture has been evaluated according to its L* values. The obtained results have been transformed in ranks of L* and then normalized on the ratio between the selected area and the area of the slide. The result is indicated as % increase versus untreated at day 6.
With N=C(N)NCCC[C@H](NC(=O)[C@@H](Cc1ccccc1)NC(=O)[C@H](Cc1c[nH]cn1)NC(=O)CNC(=O)c1ccccc1)C(=O)N[C@@H](Cc1c[nH]c2ccccc12)C(N)=O [(I-a), Bz-Gly-His-D-Phe-Arg-Trp-NH2 *2TFA] (HELM PEPTIDE1{[O=C(c1ccccc1)[*:2]].G.H.[dF].R.W.[am]}$$$$V2.0) the “skin pigmentation increase versus untreated” value was “+18%”. With CCCN(CCC)C(=O)[C@@H](Cc1c[nH]c2ccccc12)NC(=O)[C@H](CCCNC(=N)N)NC(=O)[C@@H](Cc1ccccc1)NC(=O)[C@H](Cc1c[nH]cn1)NC(=O)CNC(=O)c1ccccc1 [(I-d), Bz-Gly-His-D-Phe-Arg-D-Trp-N(Propyl)2 *2TFA] (HELM PEPTIDE1{[O=C(c1ccccc1)[*:2]].G.H.[dF].R.[dW].[CCCN(CCC)[*:1]]}$$$$V2.0) the “skin pigmentation increase versus untreated” value was “+21%”.
